{
  "source": "patent US8222261B2",
  "about": "“Chemical compounds” (GlaxoSmithKline, LLC, priority 2006, dated 2012)",
  "test_system": "Male Sprague-Dawley rats",
  "assay": "Glucose stimulated insulin secretion and glucose disposal in rats, intravenous glucose tolerance test",
  "format": "in vivo",
  "details": "10 mg/kg oral, 0.5 g/kg dextrose i.v. 90 min after dosing, vs vehicle",
  "method": "Male Sprague-Dawley rats (Charles River Laboratories, USA) had catheters surgically implanted into the jugular vein and allowed to recover for one week. On the day of the experiment, food was removed in the morning and animals were randomly assigned to two treatment groups, vehicle (n=8) or GPR119 agonist (Example 1; n=9). In the afternoon, baseline blood samples were collected prior to, and 90 minutes following oral administration of either vehicle (0.5% HPMC/0.1% Tween80) or 10 mg/kg Example 1. The intravenous glucose tolerance test was initiated immediately after the 90 minute blood sample by intravenous infusion of 0.5 g/kg dextrose over 15-30 seconds into the jugular vein, Blood samples were collected from the jugular vein at 2, 5, 10, 15, and 30 min and treated as described for the hyperglycemic clamp. Serum was collected for analysis of glucose levels using an Olympus AU640 clinical chemistry analyzer (Olympus America Inc, Melville, N.Y.) and insulin levels by an electrochemoluminescence assay (Bioveris, Gaithersburg Md.). The rats were sacrificed at the end of the study by an overdose of Nembutal.\nFIG. 14 and FIG. 15 show circulating plasma glucose and insulin concentrations at each time point throughout the intravenous glucose tolerance test. The data is represented as the average glucose and insulin levels±SEM for all animals in for the two treatment groups.",
  "data": [
    {"smiles": "CC(C)OC(=O)N1CCC(Oc2ncnc3c2CCN3c2ccc(S(C)(=O)=O)cc2F)CC1", "note": "[Example 1, 1-Methylethyl 4-({7-[2-fluoro-4-(methylsulfonyl)phenyl]-6,7-dihydro-5H-pyrrolo[2,3-d]pyrimidin-4-yl}oxy)-1-piperidinecarboxylate]", "values": [
      {"measurement": "area under the glucose curve (AUC)", "result": "significantly reduced"},
      {"measurement": "area under the insulin curve", "result": "significantly increased"},
      {"measurement": "peak (2 minute) insulin response", "result": "significantly increased"},
      {"measurement": "rate of glucose elimination", "result": "significantly increased"}
    ]}
  ]
}
